Data taken from PMC12502323, “Discovery of small molecules with anthelmintic potential in the Medicines for Malaria Venture’s COVID and Global Health Priority Boxes using an infrared-based assay for Caenorhabditis elegans motility” (BMC Research Notes, 2025).

Key:
Caenorhabditis elegans [1] = experiment: Primary screen, infrared-based (WMicroTracker ONE) C. elegans L4 motility assay at 40 µM; assay type: cell-based, Caenorhabditis elegans (Bristol N2); conditions: primary screen at 40 µM; for C. elegans NOTES (HIT): hit if motility < 25%
Experimental: (§1) Methods to cultivate C. elegans (Bristol N2) and synchronize growth to the L4 stage were as described. WMicroTracker ONE (Phylumtech, Argentina) detects movement by measuring the scattering of infrared light beams that are projected into each well of a microtiter plate (two 880 nm beams/well in a 96w plate).
(§2) Synchronized C. elegans L4 were detached from agar and collected in M9 buffer. Worms were centrifuged for 1 min at 1,900 g and washed in S medium to decrease the concentration of E. coli OP50 that might interfere with infrared detection. Control and assay compounds (1 µL) in DMSO (Fisher Scientific, Cat# BP231-100) were spotted into each well of a clear, flat-bottomed 96-well polystyrene plate (Fisherbrand, Cat# FB012931). DMSO (1%) was used as the negative control. Approximately 70 L4 in 100 µL S medium were added per well. First pass screens employed 40 µM compound, and motility was measured every 20 min for 24 h in the WMicroTracker ONE reader in which the temperature was 25 ± 1 °C. Motility was normalized relative to the DMSO controls. Hits were defined as compounds that decreased motility to ≤ 25% of that in DMSO control worms.

[2] = HEK293 cytotoxicity assay (resazurin); assay type: cell-based, Human; conditions: human; HEK293 cell viability after 48 h; read-out: CC50
Experimental: Potent compounds were also evaluated for cytotoxicity against HEK293 cells. Cells were cultured at 37 °C and 5% in Dulbecco’s Modified Eagle Medium (DMEM; Gibco, Cat#: 11965-092) containing 10% heat-inactivated fetal bovine serum (FBS; Omega Scientific Inc., Cat#: FB02) and 1% penicillin-streptomycin (ThermoFisher Scientific, Cat#: 15140122), and then sub-cultured when 60–80% confluent. Cells were detached with 0.05% trypsin/EDTA (ThermoFisher Scientific, Cat#: 25300054) and centrifuged for 5 min at 1,900 g.
Screens were performed over 11 compound concentrations (0.00007–40 µM) that had been prepared in DMSO. Aliquots (1 µL) were spotted into each well of a clear-bottomed, 96-well, polystyrene assay plate (Fisher Scientific, Cat#: FB012931). Approximately 20,000 HEK293 cells in 99 µL of the above supplemented DMEM were then added to each well. After 46 h at 37 °C and 5% CO2, 20 µL 0.5 mM resazurin (ThermoFisher Scientific, Cat#: B21187.03) were added and the incubation continued for 2 h at 37 °C [27]. Fluorescence was measured in a 2104 EnVision Multilabel Plate Reader (PerkinElmer) at 560 and 590 nm excitation and emission wavelengths, respectively. Raw data were exported from the EnVision Workstation software (version 1.13.3009.1401; PerkinElmer) into Prism GraphPad, and the half-maximal cytotoxic concentration (CC50) values were calculated using a non-linear regression curve.

Caenorhabditis elegans [3] = experiment: Concentration response C. elegans L4 motility assay (WMicroTracker ONE), EC50; assay type: cell-based, Caenorhabditis elegans (Bristol N2); conditions: Caenorhabditis elegans; C. elegans L4, after 12 h; read-out: EC50 (motility)
Experimental: as §1, §2
For potent compounds, concentration response assays (nine concentrations: 0.005 µM to 40 or 100 µM) were conducted to measure the half-maximal effective concentration (EC50). Compounds were serially diluted in DMSO using 96-well, v-bottomed polypropylene dilution plates (ThermoFisher Scientific, Cat#: 249944) and 1 µL aliquots spotted into each well of the assay plates. Motility was measured as described above. Prism GraphPad, Version 8.0 (GraphPad Software, San Diego, CA) was used to calculate EC50 values using a non-linear sigmoidal four parameter logistic curve.

[4] = C. elegans L4, WMicroTracker ONE

Compound	C. elegans Mean motility vs. DMSO control (%) (Caenorhabditis elegans [1]; C. elegans L4)	C. elegans Mean motility vs. DMSO control (%) (Caenorhabditis elegans [1]; [4])	further results
Oc1ccccc1CCN[C@H]1CCc2ccc(F)cc21 [MMV1726212]	87.88	–	–
COc1cc2c3cc1Oc1c(OC)c(OC)cc4c1C(Cc1ccc(O)c(c1)Oc1ccc(cc1)CC3N(C)CC2)N(C)CC4.Cl (stereo not shown) [MMV007474]	94.2	–	–
CC(C)C[C@H](NC(=O)[C@@H](NC(=O)c1cccc(-c2ccccc2)n1)[C@@H](C)O)B(O)O [MMV690548]	–	97.97	–
CCC1=C(c2ccc(C)cc2)S(=O)(=O)N=C1N1CCC(C(=O)NCCN2CCCC[C@@H]2C)CC1 [MMV1704710]	–	104.04	–
CC[C@@H](C(=O)[C@@H](C)[C@@H](O)[C@H](C)[C@@H]1O[C@@H]([C@@H](CC)C(=O)O)CC[C@@H]1C)[C@H]1O[C@]2(C=C[C@@H](O)[C@]3(CC[C@@](C)([C@H]4CC[C@](O)(CC)[C@H](C)O4)O3)O2)[C@H](C)C[C@@H]1C [MMV1804312]	–	96.95	–
C[C@H](Cn1cnc2c(N)ncnc21)OCP(=O)(O)O [MMV1580478]	95.45	–	–
CCC(C)n1ncn(-c2ccc(N3CCN(c4ccc(OCC5COC(Cn6cncn6)(c6ccc(Cl)cc6Cl)O5)cc4)CC3)cc2)c1=O (stereo not shown) [MMV637528]	–	97.65	–
milbemectin [reference compound]	1.69	–	C. elegans NOTES (HIT) (Caenorhabditis elegans [1]): HIT
O=C(Nc1ncccc1O)c1ccc(Cn2cccn2)cc1 [MMV1266067]	85.15	–	–
O=C(Nc1ncccc1O)c1ccc(S(=O)(=O)NCCc2cccs2)cc1 [MMV1435700]	75.25	–	–
O[C@@H](c1cc(C(F)(F)F)nc2c(C(F)(F)F)cccc12)[C@H]1CCCCN1 [MMV000014]	88.32	–	–
abamectin [reference compound]	3.6	–	C. elegans NOTES (HIT) (Caenorhabditis elegans [1]): HIT
Cc1onc(-c2ccccc2)c1-c1ccc(S(N)(=O)=O)cc1 [MMV002260]	95.37	–	–
CCOCn1c(-c2ccc(Cl)cc2)c(C#N)c(Br)c1C(F)(F)F [chlorfenapyr]	0.26	–	C. elegans NOTES (HIT) (Caenorhabditis elegans [1]): HIT; CC50 at 48 h [2]: 20.9 ± 7.34 µM; EC50 (Caenorhabditis elegans [3]): 1.65 ± 0.449 µM
COc1ccc(Cc2nccc3cc(OC)c(OC)cc23)cc1OC [MMV002798]	–	96.9	–
CC(=O)N1CCN(c2ccc(OC[C@@H]3CO[C@@](Cn4ccnc4)(c4ccc(Cl)cc4Cl)O3)cc2)CC1 [MMV637533]	–	113.2	–
CC(C)Oc1ccc(-c2nc(-c3cccc4c3CC[C@@H]4NCCO)no2)cc1C#N [MMV1580492]	83.52	–	–
CN1CCCC1CCO[C@](C)(c1ccccc1)c1ccc(Cl)cc1 (stereo partly shown) [MMV637229]	–	98.88	–
O=C(Nc1ncccc1O)c1ccc(N2CCOCC2)nc1 [MMV1103183]	–	99.33	–
O=C(NC1CCN(CCOc2ccc(Cl)cc2)CC1)c1c[nH]c2ccncc2c1=O [MMV1798946]	–	99.33	–
eprinomectin [reference compound]	13.19	–	C. elegans NOTES (HIT) (Caenorhabditis elegans [1]): HIT
CCCOc1ccc(C(F)(F)F)cc1NC(=O)c1nc2nccc(C)n2n1 [MMV1262756]	25.74	–	–
